One series deals with r rat cathepsin L (Rattus norvegicus, UniProt P07154). Description: In vitro assay for cathepsin L inhibition. Format: biochemical. Conditions: substrate N-CBZ-Phe-Arg-AMC, pH 5.0, 10 min preincubation. On the procedure: After 10 min of incubation at room temperature, a 20 μl of 1 mM substrate (N-CBZ-Phe-Arg-AMC, dissolved in DMSO) was added to initiate reaction. Reading is followed up for 10 min at the fluoroscan reader (excitation at 380 nm emission at 460 nm).
(§1) A plot of percentage of inhibition vs inhibitor concentration is obtained, and IC50 is determined using a linear regression calculations (concentration of inhibitor which will give 50% inhibition).

For another series, the target named is r rat cathepsin B (Rattus norvegicus, UniProt P00787). Briefly: In vitro assay for cathepsin B inhibition. In kind it is biochemical. Particulars: substrate N-CBZ-Phe-Arg-AMC, pH 5.1, 10 min preincubation. The method, then: The compounds of formula I were tested for inhibition of cathepsin B using the known method (A. J. Barret et al., Biochem. J. 1982, 201, 189-198). To a 170 μl of enzyme-buffer mixture (enzyme: r rat cathepsin B, diluted to give approximate 10 F units/min, buffer: 56 mM sodium acetate, 1.124 mM EDTA, 10 mM DTT, pH 5.1) a 10 μl of inhibitor (dissolved in DMSO) was added. After 10 min of incubation at room temperature, a 20 μl of 5 mM substrate (N-CBZ-Phe-Arg-AMC, dissolved in DMSO) was added to initiate reaction. Reading is followed up for 10 min at the fluoroscan reader (excitation at 380 nm emission at 460 nm).
as §1

The next series addresses T1, r cathepsin K (Homo sapiens, UniProt P43235).
T1 sequence (P43235 115-329): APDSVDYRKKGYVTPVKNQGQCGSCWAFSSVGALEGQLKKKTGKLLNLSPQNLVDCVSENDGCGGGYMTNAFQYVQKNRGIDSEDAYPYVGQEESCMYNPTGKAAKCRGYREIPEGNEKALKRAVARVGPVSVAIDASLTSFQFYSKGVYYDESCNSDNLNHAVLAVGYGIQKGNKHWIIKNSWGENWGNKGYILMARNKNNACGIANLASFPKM
Description: In vitro assay for cathepsin K inhibition. In kind it is biochemical. Particulars: substrate N-CBZ-Phe-Arg-AMC, pH 5.5, 10 min preincubation. The method, then: To a […] of enzyme-buffer mixture (enzyme: r cathepsin K, diluted to give approximate 30 F units/min, buffer: 100 mM sodium acetate, 5 mM EDTA, 20 mM L-cysteine, 0.01% Brij, pH 5.5) a 10 μl of inhibitor (dissolved in DMSO) was added. After 10 min of incubation at room temperature, a 20 μl of 2.7 mM substrate (N-CBZ-Phe-Arg-AMC, dissolved in DMSO) was added to initiate reaction. Reading is followed up for 10 min at the fluoroscan II plate reader (excitation at 380 nm emission at 460 nm).
as §1

The target in the next series is r cathepsin S (Homo sapiens, UniProt P25774). Description: In vitro assay for cathepsin S inhibition. In kind it is biochemical. Particulars: substrate N-CBZ-Val-Val-Arg-AMC, pH 6.5, 10 min preincubation. On the procedure:
To a […] of enzyme-buffer mixture (enzyme: r cathepsin S, diluted to give approximate 30 F units/min, buffer: 100 mM sodium phosphate, 1 mM EDTA, 5 mM DTT, 0.01% Brij, pH 6.5) a 10 μl of inhibitor (dissolved in DMSO) was added. After 10 min of incubation at room temperature a […] of 1.2 mM substrate (N-CBZ-Val-Val-Arg-AMC, dissolved in DMSO) was added to initiate reaction. Reading is followed up for 10 min at the fluoroscan 11 plate reader (excitation at 380 nm emission at 460 nm).
as §1

Series [1] in a line: Pharmacokinetics in mice after single oral dose. Conditions: single oral dose of 5 mg/kg; for AUC / Cmax / half-life / Vd/F: mouse, in vivo; for Vd/F: read-out: Vz/F. The arrangement: Cl/F: unit not given here. In kind it is in vivo. On the procedure:
Selected compounds of present invention were tested in rodents. This class of compound has favorable pharmacokinetics at the oral dose of 5 mg/kg. The bioavailability is about 60-70%.

Molecules are shown by their SMILES.

Chain of r rat cathepsin B (P00787 80-333): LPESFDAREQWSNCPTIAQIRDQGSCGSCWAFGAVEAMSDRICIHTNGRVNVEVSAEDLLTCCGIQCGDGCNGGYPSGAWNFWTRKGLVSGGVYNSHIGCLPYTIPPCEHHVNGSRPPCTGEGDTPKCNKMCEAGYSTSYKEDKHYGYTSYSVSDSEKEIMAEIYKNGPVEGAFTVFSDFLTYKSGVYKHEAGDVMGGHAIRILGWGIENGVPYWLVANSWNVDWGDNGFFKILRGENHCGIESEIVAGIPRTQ
Chain of r rat cathepsin L (P07154 114-334): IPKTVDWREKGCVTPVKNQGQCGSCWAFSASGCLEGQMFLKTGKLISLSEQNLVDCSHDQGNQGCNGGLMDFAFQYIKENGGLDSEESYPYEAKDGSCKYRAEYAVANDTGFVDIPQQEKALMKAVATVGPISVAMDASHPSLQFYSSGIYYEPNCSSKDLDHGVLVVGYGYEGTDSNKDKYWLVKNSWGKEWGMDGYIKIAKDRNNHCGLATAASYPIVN
Chain of r cathepsin S (P25774 115-331): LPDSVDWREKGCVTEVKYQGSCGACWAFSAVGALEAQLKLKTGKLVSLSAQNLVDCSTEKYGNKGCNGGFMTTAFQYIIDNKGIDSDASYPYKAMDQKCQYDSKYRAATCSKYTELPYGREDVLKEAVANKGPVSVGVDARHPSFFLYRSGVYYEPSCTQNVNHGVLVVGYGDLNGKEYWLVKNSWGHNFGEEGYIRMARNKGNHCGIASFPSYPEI

For orientation: IC50 means the concentration that inhibits the measured activity by half. On to `CC(C)C[C@H](NC(=O)CCc1ccccc1)C(=O)NC1=CNC2(CCCCCC2)NC1=O` [Example 19, 5-[2-(3-Phenylpropionoyl)-amino-2-isobutyl]acetamido-2,2-spirocycloheptyl-2,3-dihydopyrimidine-6-(1H)one], for which the IC50 against r rat cathepsin L was 450 nM; at r rat cathepsin B, 5220 nM; against r cathepsin K, 91 nM; against r cathepsin S, 68 nM.

As usually defined, the AUC is the area under the concentration-time curve, a measure of exposure. By Cmax is commonly meant the peak of the concentration-time curve. The half-life is the time needed for the level to fall by half in the phase considered. `CC(C)C[C@H](NC(=O)OCc1ccccc1)C(=O)NC1=CNC2(CCCC2)NC1=O` [Example 6, 5-[2-(Benzyloxycarbonyl)amino-2-isobutyl]acetamido-2,2-spirocyclopentyl-2,3-dihydopyrimidine-6-(1H)one] returned an IC50 on r rat cathepsin L of 1790 nM. The same compound displayed an IC50 against r rat cathepsin B of 3160 nM. This compound had a half-inhibitory concentration (IC50) against r cathepsin K of 100 nM. In addition, in series [1], the area under the curve (AUC) is 2730 ng·h/mL, the peak level (Cmax) was 3830 ± 3090 ng/mL, the half-life is 1.63 ± 0.48 h and the Vd/F amounted to 4.49 ± 1.9 L/kg. In addition, the Cl/F in series [1] turned out to be 0.617 ± 0.08. At r cathepsin S, the midpoint of inhibition, the IC50, lay at 480 nM.

Turning to `CC(C)C[C@H](NC(=O)OCc1ccccc1)C(=O)NC1=CNC(C(C)(C)C)NC1=O` (stereo partly drawn) [Example 8, 5-[2-(Benzyloxycarbonyl)-amino-2-isobutyl]acetamido-2-tert-butyl-2,3-dihydopyrimidine-6-(1H)one], the half-maximal inhibitory concentration (IC50) on r rat cathepsin L came to 480 nM; at r rat cathepsin B it was 4560 nM; against r cathepsin K, 74 nM; at r cathepsin S, 480 nM.

Take `CC(C)C[C@H](NC(=O)OCc1ccccc1)C(=O)NC1=CNC(c2ccco2)NC1=O` (stereo partly drawn) [Example 20, 5-[2-(Benzyloxycarbonyl)amino-2-isobutyl]acetamido-2-(furan-2-yl)-2,3-dihydopyrimidine-6-(1H)one]: the IC50 against r rat cathepsin L is 1500 nM; against r rat cathepsin B, 2350 nM; at r cathepsin K it was 45 nM; on r cathepsin S it was 94 nM.

As for `CC(C)C[C@H](NC(=O)OCc1ccccc1)C(=O)NC1=CNC(c2ccccc2F)NC1=O` (stereo partly drawn) [Example 2, 5-[2-(Benzyloxycarbonyl)amino-2-isobutyl]acetamido-2-(2-fluorophenyl)-2,3-dihydopyrimidine-6-(1H)one], the IC50 against r rat cathepsin L turned out to be 920 nM; against r rat cathepsin B it was 8380 nM; at r cathepsin K it was 57 nM; against r cathepsin S, 290 nM.

For `CC(C)C[C@H](NC(=O)OCc1ccccc1)C(=O)NC1=CNC(c2ccccc2)NC1=O` (stereo partly drawn) [Example 1, 5-[2-(Benzyloxycarbonyl)amino-2-isobutyl]acetamido-2-phenyl-2,3-dihydopyrimidine-6-(1H)one], the IC50 stood at 460 nM against r rat cathepsin L, 4010 nM against r rat cathepsin B, 340 nM at r cathepsin K and 460 nM on r cathepsin S.

Regarding `CC(C)C[C@H](NC(=O)c1cc2ccccc2s1)C(=O)NC1=CNC(c2ccccc2F)NC1=O` (stereo partly drawn) [Example 21, 5-[2-(Benzothiophene-2-yl)amino-2-isobutyl]acetamido-2-(2-fluorophenyl)-2,3-dihydopyrimidine-6-(1H)one], inhibition against r rat cathepsin L was half-maximal at 170 nM (IC50). It took 420 nM to reach half-maximal inhibition on r rat cathepsin B (IC50). Also, 14 nM corresponded to half-maximal inhibition against r cathepsin K (IC50). For the same compound, in series [1], the AUC is 853 ng·h/mL, the Cmax is 2610 ± 1840 ng/mL, the half-life was 0.54 ± 0.39 h and the Vd/F was found to be 4.49 ± 3.03 L/kg. Also, the Cl/F in series [1] amounted to 2.09 ± 0.72. Also, the IC50 at r cathepsin S was found to be 37 nM.

For `CC(C)C[C@H](NC(=O)CCc1ccccc1)C(=O)NC1=CNC2(CCCC2)NC1=O` [Example 17, 5-[2-(3-Phenylpropionyl)-amino-2-isobutyl]acetamido-2,2-spirocyclopentyl-2,3-dihydopyrimidine-6-(1H)one], the IC50 was more than 50000 nM at r rat cathepsin L, more than 50000 nM at r rat cathepsin B, 12100 nM on r cathepsin K and 8490 nM on r cathepsin S.

For `CC(C)C[C@H](NC(=O)OCc1ccccc1)C(=O)NC1=CNC(CC(C)(C)C)NC1=O` (stereo partly drawn) [Example 10, 5-[2-(Benzyloxycarbonyl)-amino-2-isobutyl]acetamido-2-tert-butylmethyl-2,3-dihydopyrimidine-6-(1H)one], the IC50 was 2320 nM against r rat cathepsin L, 9530 nM at r rat cathepsin B, 250 nM on r cathepsin K and 2320 nM at r cathepsin S.

Turning to `CC(C)C[C@H](NC(=O)OCc1ccccc1)C(=O)NC1=CNC(c2ccncc2)NC1=O` (stereo partly drawn) [Example 9, 5-[2-(Benzyloxycarbonyl)-amino-2-isobutyl]acetamido-2-(pyridin-4-yl)-2,3-dihydopyrimidine-6-(1H)one], the IC50 was determined as 460 nM against r rat cathepsin L, 2290 nM at r rat cathepsin B, 18 nM on r cathepsin K and 55 nM against r cathepsin S.

As to `CC(C)C[C@H](NC(=O)OCc1ccccc1)C(=O)Nc1c[nH]c(=O)[nH]c1=O` [Example 14, 5-[2-(Benzyloxycarbonyl)-amino-2-isobutyl]acetamido Pyrimidin-2,6-dione], the half-inhibitory concentration (IC50) on r rat cathepsin L, against r rat cathepsin B, against r cathepsin K and against r cathepsin S was more than 50000 nM throughout.

The record behind these values is patent US20040024000A1, “Dihydropyrimidine derivatives as cysteine protease inhibitors” (priority 2003, published 2004).
